Several values for one entry are separate records, joined by “and”; a condition that tells them apart may be missing. Equal entries are not always repeated.
Key:
GK rats [1] = experiment: OGTT with insulin co-measurement on Day 13 of chronic treatment, parallel set of animals; format: in vivo, rat; parameters: Change in plasma insulin from baseline during OGTT (delta insulin): unit not given here; details: for Change in plasma insulin from baseline during OGTT (delta insulin): day 13, individual animals
Protocol: (§1) On the day of the study, male GK rats were bled via tail snip, and blood glucose was measured via glucometer (OneTouch Ultra, Lifescan Inc., Milpitas, CA). Fed glucose was measured at 8 A.M. (lights on 7 A.M.– 7 P.M.) and used to select and sort animals into treatment groups (n = 8/ GK group, plus n = 6/WKY control group). Animals were then placed into clean cages, and food was removed. After a 5 hr fast, glucose was measured at time = -60 min, followed by administration of vehicle plus or minus compound via oral gavage (PO) at a dosing volume of 5 ml/kg. Dosages from 0.3–10 mg MK-2305 / kg body weight were tested. Both the GK and WKY control groups received vehicle (0.5% methylcellulose). Blood glucose was measured again (time = 0) immediately prior to a dextrose challenge of 1 g/kg at 10 ml/kg dose volume (Dextrose, Hospira Inc., Lake Forrest IL) and then again at 20, 40, 60, and 120 min after the glucose challenge. Insulin was co-measured to test the glucose-dependent secretory response to MK-2305 delivered acutely PO. To capture insulin secretion during the OGTT, blood was collected at t = -60, 0, 20, 40, 60 min post glucose challenge. […] Values of percent inhibition vs. vehicle for each treatment were generated from the AUC data. Maximally efficacious dose (MED) was defined as the minimum dosage generating a maximum inhibition of glucose excursion achieved with this compound in the OGTT assay.
In a parallel set of animals (n = 30) treated with standard diet or MK-2305 at 30 mg/kg diet, an OGTT with insulin co-measurement was performed on Day 13. On the day of OGTT, n = 10 vehicle animals and n = 10 MK-2305-treated animals were administered 0.5% methylcellulose PO at a dosing volume of 5 ml/kg. For an acute comparison, n = 10 vehicle animals were administered MK-2305 at 30 mg/kg PO. The procedure for an acute OGTT was identical to that described above.

GPR40 receptor = details: cited from earlier work
GK rats [2] = experiment: GK rat acute oral glucose tolerance test (OGTT) with insulin co-measurement; format: in vivo; parameters: Blood Glucose AUC / Insulin AUC: unit not given here; details: for Blood Glucose / Insulin (plasma) / Insulin AUC / Blood Glucose AUC: individual GK rats; for Insulin AUC: OGTT t = 0 to 60 min; for Blood Glucose AUC: OGTT t = 0 to 120 min
Protocol: as §1, with “After a 5 hr fast, glucose was measured at time = -60 min, followed by administration of vehicle plus or minus compound via oral gavage (PO) at a dosing volume of 5 ml/kg.” left out, “To capture insulin secretion during the OGTT, blood was collected at t = -60, 0, 20, 40, 60 min post glucose challenge.” left out
Plasma was analyzed for triglycerides, NEFA, and HbA1C using a P Modular Roche Clinical Chemistry analyzer. Liver triglycerides were extracted as described by Bligh and Dyer, and were measured using the Infinity triglyceride assay kit (Thermo Scientific, Rockford, IL). Plasma insulin levels were measured via EIA (Mesoscale Discovery ELISA Kit, Gaithersburg MD).

[3] = 10 mg/kg PO, GK rats, p < 0.001
[4] = 0.3 mpk PO, 60 min after glucose challenge
[5] = 1 mpk PO, 60 min after glucose challenge
[6] = 3 mpk PO, 60 min after glucose challenge
[7] = 10 mpk PO, 60 min after glucose challenge

Compound: O=C1NC(=O)C(C2CCOc3cc(Oc4ccc(C(F)(F)F)cc4Cl)ccc32)S1 (stereo not shown) [MK-2305]
- Change in plasma insulin from baseline during OGTT (delta insulin) (GK rats [1]; Acute, 30 mpk, Time 0, 30 mg/kg): 0.309 and 1.604 and 0.324 and 0.21 and 0.156 and 0.86 and 1.776 and 0.805 and -0.061 and 0.012
- Change in plasma insulin from baseline during OGTT (delta insulin) (GK rats [1]; Acute, 30 mpk, Time 20, 30 mg/kg): 1.499 and 1.114 and 1.989 and 2.273 and 1.824 and -0.14 and 3.286 and 1.17 and 0.172 and 0.765
- Change in plasma insulin from baseline during OGTT (delta insulin) (GK rats [1]; Acute, 30 mpk, Time 60, 30 mg/kg): 0.099 and 0.177 and 0.004 and -0.004 and -0.413 and -0.187 and -0.251 and 0.259 and -0.133 and 0.416
- Change in plasma insulin from baseline during OGTT (delta insulin) (GK rats [1]; Acute, 30 mpk, Time -60): 0
- Change in plasma insulin from baseline during OGTT (delta insulin) (GK rats [1]; Chronic, 30 mkd, Time 0): 0.06 and -0.177 and -0.627 and -0.109 and -0.564 and -0.273 and 0.845 and 0.077 and 0.103 and 0.198
- Change in plasma insulin from baseline during OGTT (delta insulin) (GK rats [1]; Chronic, 30 mkd, Time 20): 0.473 and 0.233 and 0.417 and 0.389 and 0.164 and 0.072 and 0 and 0.34 and 0.387 and 0.196
- Change in plasma insulin from baseline during OGTT (delta insulin) (GK rats [1]; Chronic, 30 mkd, Time 60): -0.534 and -0.189 and -0.192 and 0.192 and -0.625 and -0.523 and -0.322 and -0.003 and -0.166 and -0.044
- Change in plasma insulin from baseline during OGTT (delta insulin) (GK rats [1]; Chronic, 30 mkd, Time -60): 0
- effect on plasma insulin after a glucose challenge (GK rats [1]; OGTT Day 13, 30 mg/kg acutely PO and chronically in diet, vs. vehicle): increased plasma insulin
- binding site on GPR40 (GPR40 receptor): binds to the same site as other GPR40 partial agonists such as AMG837 and TAK-875
- effect on binding of AgoPAM's (GPR40 receptor): augments the binding of AgoPAM’s such as AM1638
- decrease of glucose AUC vs. vehicle in OGTT (GK rats [2]; 0.3 mg/kg PO, GK rats, p < 0.001): 18%
- increase in plasma insulin vs. vehicle during OGTT (GK rats [2]; 1 mg/kg PO, GK rats, p < 0.001): 59%
- increase in plasma insulin vs. vehicle during OGTT (GK rats [2]; 3 mg/kg PO, GK rats, p < 0.001): 83%
- reduction in glucose AUC from vehicle in OGTT (GK rats [2]; 3 mg/kg PO, GK rats, p < 0.001): 40%
- decrease of glucose AUC vs. vehicle in OGTT (GK rats [2]; [3]): 54%
- increase in plasma insulin vs. vehicle during OGTT (GK rats [2]; [3]): 124%
- Blood Glucose (GK rats [2]; 0.3 mpk PO, 40 min after glucose challenge): 254 mg/dl and 284 mg/dl and 328 mg/dl and 294 mg/dl (2×) and 264 mg/dl and 219 mg/dl and 321 mg/dl
- Blood Glucose (GK rats [2]; [4]): 197 mg/dL and 204 mg/dL and 264 mg/dL and 233 mg/dL and 229 mg/dL and 270 mg/dL and 209 mg/dL and 330 mg/dL
- Insulin (plasma) (GK rats [2]; [4]): 1.219 ng/mL and 1.901 ng/mL and 1.676 ng/mL and 1.551 ng/mL and 1.782 ng/mL and 1.959 ng/mL and 1.355 ng/mL and 1.696 ng/mL
- Blood Glucose (GK rats [2]; 0.3 mpk PO, 120 min after glucose challenge): 149 mg/dL and 196 mg/dL and 217 mg/dL and 188 mg/dL and 177 mg/dL and 203 mg/dL and 145 mg/dL and 249 mg/dL
- Insulin AUC (GK rats [2]; 0.3 mpk PO): 107.011 and 73.5773 and 77.5052 and 96.9965 and 105.345 and 92.3289 and 113.426 and 113.509
- Blood Glucose AUC (GK rats [2]; 0.3 mpk PO): 30355 and 22170 and 34265 and 24465 and 25900 and 30390 and 27140 and 25850
- Insulin (plasma) (GK rats [2]; 0.3 mpk PO, time 0 min (before glucose challenge)): 1.527 ng/mL and 1.4 ng/mL and 1.238 ng/mL and 1.748 ng/mL and 1.648 ng/mL and 1.595 ng/mL and 1.041 ng/mL and 1.268 ng/mL
- Insulin (plasma) (GK rats [2]; 0.3 mpk PO, time -70 min (before dosing)): 0.785 ng/mL and 1.027 ng/mL and 1.247 ng/mL and 1.425 ng/mL and 1.262 ng/mL and 0.879 ng/mL and 0.539 ng/mL and 0.638 ng/mL
- Blood Glucose (GK rats [2]; 1 mpk PO, 40 min after glucose challenge): 191 mg/dL and 247 mg/dL and 193 mg/dL and 178 mg/dL and 222 mg/dL and 184 mg/dL and 221 mg/dL and 228 mg/dL
- Blood Glucose (GK rats [2]; [5]): 162 mg/dL and 197 mg/dL and 120 mg/dL and 151 mg/dL and 200 mg/dL and 153 mg/dL and 188 mg/dL and 185 mg/dL
- Insulin (plasma) (GK rats [2]; [5]): 1.868 ng/mL and 1.957 ng/mL and 1.358 ng/mL and 2.073 ng/mL and 2.523 ng/mL and 1.285 ng/mL and 2.265 ng/mL and 1.751 ng/mL
- Blood Glucose (GK rats [2]; 1 mpk PO, 120 min after glucose challenge): 120 mg/dL and 147 mg/dL and 101 mg/dL and 113 mg/dL and 162 mg/dL and 119 mg/dL and 110 mg/dL and 132 mg/dL
- Insulin AUC (GK rats [2]; 1 mpk PO): 127.564 and 125.822 and 145.583 and 145.346 and 124.296 and 92.8339 and 131.803 and 160.953
- Blood Glucose AUC (GK rats [2]; 1 mpk PO): 18600 and 21570 and 21405 and 19360 and 22440 and 17695 and 17840 and 23185
- Insulin (plasma) (GK rats [2]; 1 mpk PO, time 0 min (before glucose challenge)): 1.711 ng/mL and 2.457 ng/mL and 1.219 ng/mL and 2.149 ng/mL and 2.161 ng/mL and 2.386 ng/mL and 1.648 ng/mL and 2.525 ng/mL
- Insulin (plasma) (GK rats [2]; 1 mpk PO, time -70 min (before dosing)): 0.867 ng/mL and 1.049 ng/mL and 0.952 ng/mL and 1.247 ng/mL and 1.294 ng/mL and 0.937 ng/mL and 1.068 ng/mL and 1.695 ng/mL
- Blood Glucose (GK rats [2]; 3 mpk PO, 40 min after glucose challenge): 134 mg/dl and 184 mg/dl and 174 mg/dl (2×) and 183 mg/dl and 148 mg/dl and 181 mg/dl and 197 mg/dl
- Blood Glucose (GK rats [2]; [6]): 117 mg/dl and 116 mg/dl (2×) and 128 mg/dl and 136 mg/dl and 121 mg/dl and 86 mg/dl and 167 mg/dl
- Insulin (plasma) (GK rats [2]; [6]): 1.611 ng/mL and 1.625 ng/mL and 1.542 ng/mL and 2.593 ng/mL and 2.136 ng/mL and 0.682 ng/mL and 1.668 ng/mL and 1.737 ng/mL
- Blood Glucose (GK rats [2]; 3 mpk PO, 120 min after glucose challenge): 98 mg/dl and 130 mg/dl and 111 mg/dl and 112 mg/dl and 104 mg/dl (2×) and 78 mg/dl and 124 mg/dl
- Insulin AUC (GK rats [2]; 3 mpk PO): 154.858 and 139.888 and 150.655 and 143.381 and 149.287 and 136.931 and 166.524 and 165.471
- Blood Glucose AUC (GK rats [2]; 3 mpk PO): 13845 and 15230 and 19575 and 14655 and 17655 and 16235 and 16890 and 15775
- Insulin (plasma) (GK rats [2]; 3 mpk PO, time 0 min (before glucose challenge)): 2.038 ng/mL and 2.813 ng/mL and 2.511 ng/mL and 1.822 ng/mL and 2.53 ng/mL and 1.993 ng/mL and 3.94 ng/mL and 2.292 ng/mL
- Insulin (plasma) (GK rats [2]; 3 mpk PO, time -70 min (before dosing)): 1.014 ng/mL and 1.059 ng/mL and 0.86 ng/mL and 1.354 ng/mL and 1.26 ng/mL and 1.009 ng/mL and 0.738 ng/mL and 0.715 ng/mL
- Insulin (plasma) (GK rats [2]; 10 mpk PO, 10 min after glucose challenge): 2.601 ng/mL and 2.364 ng/mL and 2.726 ng/mL and 5.09 ng/mL
- Blood Glucose (GK rats [2]; 10 mpk PO, 40 min after glucose challenge): 175 mg/dL and 159 mg/dL and 143 mg/dL and 141 mg/dL and 190 mg/dL and 140 mg/dL and 169 mg/dL and 138 mg/dL
- Blood Glucose (GK rats [2]; [7]): 112 mg/dL and 121 mg/dL and 110 mg/dL and 96 mg/dL and 134 mg/dL and 125 mg/dL and 136 mg/dL and 122 mg/dL
- Insulin (plasma) (GK rats [2]; [7]): 3.212 ng/mL and 2.293 ng/mL and 2.244 ng/mL and 2.355 ng/mL and 1.203 ng/mL and 2.734 ng/mL and 1.35 ng/mL and 1.965 ng/mL
- Blood Glucose (GK rats [2]; 10 mpk PO, 120 min after glucose challenge): 95 mg/dL and 96 mg/dL and 92 mg/dL and 103 mg/dL and 108 mg/dL and 106 mg/dL and 90 mg/dL and 86 mg/dL
- Insulin AUC (GK rats [2]; 10 mpk PO): 214.776 and 171.523 and 203.357 and 192.34 and 162.197 and 187.807 and 233.894 and 115.015
- Blood Glucose AUC (GK rats [2]; 10 mpk PO): 15625 and 16245 and 14660 and 15615 and 15760 and 13890 and 14070 and 17780
- Insulin (plasma) (GK rats [2]; 10 mpk PO, time 0 min (before glucose challenge)): 4.429 ng/mL and 3.472 ng/mL and 2.279 ng/mL and 3.372 ng/mL and 2.041 ng/mL and 3.234 ng/mL and 3.429 ng/mL and 2.217 ng/mL
- Insulin (plasma) (GK rats [2]; 10 mpk PO, time -70 min (before dosing)): 1.186 ng/mL and 1.004 ng/mL and 1.491 ng/mL and 1.304 ng/mL and 0.764 ng/mL and 1.19 ng/mL and 0.996 ng/mL and 0.784 ng/mL
- Blood Glucose (GK rats [2]; 10 mpk PO, time AM (fed, before dosing)): 188 mg/dL and 169 mg/dL and 124 mg/dL and 160 mg/dL
- MED (maximally efficacious dose) in OGTT (GK rats [2]; GK rats, PO): 3 mg/kg

Reference: publication PMC5441580, “GPR40 partial agonist MK-2305 lower fasting glucose in the Goto Kakizaki rat via suppression of endogenous glucose production” (PLoS ONE, 2017)
